Measured values published in patent publication US6407058B1, “Modifying the permeability of physiological barriers” (Eisai Co., Limited, priority 1996, dated 2002).

Key:
Type in all cases: cell-based
p100/p120 [1] = assay: [32P]orthophosphate labelling and immunoprecipitation of p100/p120, MDCK I cells
Procedure: PDB induces dephosphorylation of p100 and p120. We investigated the possibility that the altered pattern of migration during electrophoresis of p100 and p120 following treatment with PDB is due to a change in the phosphorylation state of these proteins. MDCK I cells were metabolically labelled with [^32P]orthophosphate, treated with or without 200 nM PDB, and the p100 and p120 isolated by immunoprecipitation with antibodies recognising p100 and p120. This immunoprecipitation was carried out under buffer conditions which removed any associated proteins from p100 and p120. Protein was separated by electrophoresis, transferred to nitrocellulose filters, and exposed to film (Example 6A). The greater the amount of radioactive phosphate incorporated into the protein, the greater the signal on the film. […] To normalise for slight differences in protein loading, the same filters were then probed with p100/p120 antibody, and the level of p100/p120 protein determined by densitometry. Thus, the amount of phosphate per unit protein could be calculated. […]
MDCK I cells grown to confluence on 24 mm filters were incubated overnight in phosphate-free MEM, containing 0.5% serum (dialysed against 0.9% NaCl and 10 mM Hepes (pH 7.5)) and 100 μCi/ml [^32P]orthophosphate (Amersham). […] Filters were then probed with p120 antibodies, and the resulting ECL exposure scanned in the same way, to quantify protein loading.

p100/p120 [2] = assay: phosphoamino acid (PAA) analysis of p100/p120, MDCK I cells; conditions: PDB treatment
Procedure: Following phosphate labelling, immunoprecipitation and visualisation of p100/p120 as in panel A above, the levels of p100/p120 protein were determined by immunoblotting. Thus it could be ascertained that approximately equal amounts of protein from PDB-treated and untreated cells were used for the PAA analysis. The p100/p120 bands were excised, and the proteins hydrolysed into their constituent amino acids by boiling in 5.7 M HCl. PAAs were then separated by two-dimensional electrophoresis, and detected by autoradiography. p100/p120 from control cells contains mainly phosphoserine (S), some phosphothreonine (T) and no detectable phosphotyrosine (Y). Following PDB treatment, both phosphoserine and phosphothreonine levels are reduced.
For phosphoamino acid (PAA) analysis, MDCK I cells were labelled as above with [^32P]orthophosphate, and the p100 and p120 extracted from PDB-treated or untreated cells by immunoprecipitation (as above). Following transfer to Immobilon P, and immunoblotting to assess recovery of protein, the area of the filter containing p100 and p120 was excised. The proteins were hydrolysed at 110° C. for one hour in 5.7 M HCl to release PAAs. Following lyophilisation, two dimensional PAA separation and detection was carried out as previously described (Boyle et al., 1991).

[3] = test system: E-cadherin-associated p100/p120; assay: E-cadherin immunoprecipitation and p100/p120 immunoblotting, MDCK I cells
Description: It has been shown that although some of the p100/p120 in cells is associated with adherens junctions, there is also a large pool that is not complexed with cadherins (at least by immunoprecipitation analysis). […] This procedure served to isolate only that portion of the cellular p100/p120 that associates with the cadherins. Following electrophoresis, and transfer to nitrocellulose, the p100 and p120 present in E-cadherin immunoprecipitates were detected by immunoblotting (Example 9A). […] In both cases, p100/p120 is shown to be present at regions of cell—cell contact.
Whole cell lysates were prepared by rapidly replacing the culture medium in 6.5 mm with hot Laemmli sample buffer, followed by heating at 100° C. for 5 minutes. Immunoprecipitations were carried out at 4° C. Confluent monolayers of cells were washed rapidly with ice cold PBS (containing 0.9 mM CaCl2 and 0.5 mM MgCl2) before addition of 0.5 ml of the appropriate buffer. The filters were then gently scraped, and the lysate was removed and centrifuged at 14000× g. The supernatant was precleared with 10% (w/v) protein A-Sepharose in lysis buffer for 30-60 minutes. Appropriate primary antibodies were added to the lysate, and after 2-3 hours the immunecomplex was isolated, using rabbit anti-mouse secondary antibodies (Jackson Immunoresearch Labs Inc., West Grove, Pa.) and protein A-Sepharose. The beads were washed fives times with lysis buffer, and the bound protein was solubilized in SDS-sample buffer, followed by heating at 100° C. for 5 minutes.
For Immunoprecipitations, Triton lysis buffer or TDS lysis buffer was used. Triton lysis buffer (pH adjusted to 7.4 using NaOH) contained 25 mM Hepes, 1% Triton X-100, 2 mM EDTA, 0.1 M NaCl, 25 mM NaF, 1 mM vanadate, and protease inhibitors. […]
Cell extracts or immunoprecipitates in SDS sample buffer were resolved by SDS-PAGE. […] The filters were then extensively washed in PBS/0.5% Tween-20, and immunoreactive bands were detected by enhanced chemiluminescence (Amersham) following the manufacturers instructions.

p100/p120 [4] = assay: p100/p120 electrophoretic mobility, human umbilical vein endothelial cells (HUVECs); conditions: HUVEC, 5 minutes; histamine 10 μM, PDB 200 nM

In the case of `CCCC(=O)O[C@@H]1[C@@H](C)[C@@]2(O)[C@@H](C=C(CO)C[C@]3(O)C(=O)C(C)=C[C@@H]23)[C@@H]2C(C)(C)[C@]12OC(=O)CCC` [PDB, Phorbol-12,13-dibutyrate], the “phosphate content of p100/p120, of that in untreated cells (mean±s.d.)” value (p100/p120 [1]; 200 nM PDB 30 minutes, seven independent sets of experiments) is reported as 58±11%, the “phosphate in p100/p120 lost” value (p100/p120 [1]; 200 nM PDB, single experiment (FIG. 7B), normalised for protein) is reported as “approximately 40%” and the “phosphoserine and phosphothreonine levels of p100/p120” value (p100/p120 [2]) is reported as “reduced”. For the same compound, the “reduction in phosphate signal (PAA densitometry)” value (p100/p120 [2]) was “approximately 40%”, the “phosphorylation of E-cadherin-associated p100/p120” value ([3]; PDB, Triton lysis buffer, E-cadherin immunoprecipitates) was “is dephosphorylated” and the “phosphorylation of non-E-cadherin-associated p100/p120” value ([3]; PDB, data not shown) was “subject to dephosphorylation”. The “amount of p100 and p120 present in E-cadherin immunoprecipitates” value ([3]; after addition of PDB) was “no obvious change” and the “mobility of p120 and p100” value (p100/p120 [4]) was “increased mobility”.
